Experimental data taken from patent US20080207532A1, “Use of Nordihydroguaiaretic Acid Derivatives in the Treatment of Drug Resistant Cancer, Viral and Microbial Infection” (Johns Hopkins University, priority 2004, published 2008).
“And” between values parts separate entries of the source, which are not always exact repeats. Equal values may be shown once. Read-outs that look alike come from different tables or passages of the source.

Columns and labels:
[1] = test system: MDR1 mRNA; test: RT-PCR of MDR1 mRNA in NCI/ADR-RES cells; assay type: cell-based, human; details: 20 μM M4N, three days
Description: Total RNA was isolated using the Trizol Reagent (Invitrogen, Carlsbad, Calif.). RT-PCR was carried out with the Superscript II One-Step RT-PCR system with Platinum Taq DNA Polymerase (Invitrogen) according to the manufacturer's protocol using oligonucleotide primers specific for MDR1: […]
The RT-PCR products were separated by agarose gel electrophoresis and stained with ethidium bromide. Relative band intensities were quantified by ImageJ software (NIH, Bethesda, Md.).
We next examined the effect of M4N on MDR1 gene expression to determine whether the observed synergy between M4N and Dox and paclitaxel in multidrug resistant cells is the result of reversal of the MDR phenotype. We postulated that M4N, through its ability to inhibit Sp1 binding, might down regulate MDR1 gene expression. To examine this possibility, NCI/ADR-RES cells were exposed to 0, 5, 10 and 20 μM M4N for three days, after which total RNA and protein were examined for levels of MDR1 mRNA and Pgp. […] The levels of Pgp were normalized to cyclin B1, whose expression, according to our previous results, is unaffected by M4N (4, 5).

[2] = clinical trials to date; cited from earlier work
[3] = test system: MCF-7 cells; test: MTT cell proliferation assay, MCF-7 cells in culture; assay type: cell-based, human; details: 72 hours
Description: (§1) MCF-7 cells (a human mammary carcinoma cell line, obtainable from the ATCC P.O. Box 1549, Manassas, Va. 20108) were seeded into 24-well plates at 1.5×10^4 cells/well in 500 μl of Dulbecco's modified Eagle's medium (DMEM) containing 10% fetal bovine serum (FBS) and the antibiotics penicillin and streptomycin. Varying concentrations of M4N were added the next day. After incubation for an additional 3 days, cell proliferation was assessed by the MTT assay. […] The mice were assigned to a treatment group that received M4N dissolved in a 6% Cremaphor EL, 6% ethanol and 88% saline, and to a control group that received the vehicle only. […] Mice received a single daily 100 μL intraperitoneal (i.p.) injection containing 2 mg of M4N for 3 weeks. The control mice received an equal volume of the vehicle. […] The results from the individual mice were combined and the average tumor volume was determined. Statistical significance of the mean differences in tumor volume was assessed by Student's t-test.

[4] = solubility in water; assay type: physicochemical
[5] = test system: NCI/ADR-RES multidrug resistant breast cancer xenografts; test: combination therapy against NCI/ADR-RES xenografts in nude mice; details: two weeks
Description: Nude mice bearing NCI/ADR-RES multidrug resistant breast cancer xenografts were used as a model for combination therapy to further examine synergy between M4N and paclitaxel.
T-cell deficient female nude (nu/nu) mice, 5-6 weeks of age, were purchased from Charles River Laboratories (Wilmington, Mass.) and were housed in a pathogen-free room. All experiments involving the mice were carried out in accordance with the Johns Hopkins University Animal Care and Use Committee guideline. The mice were implanted subcutaneously in both flanks with 1×10^6 NCI/ADR-RES cells suspended in Hank's balanced salt solution (HBSS). […] For intraperitoneal (i.p.) administration, M4N, maltose-M3N and paclitaxel were dissolved in a recently developed reduced cremophor solution containing 20% (v) dehydrated ethanol, 20% (v) Cremophor EL, PEG 300, <11% (v) Tween 80 (22). Daily injections of 0.05 ml were performed for each drug and drug combination.
Tumors were measured in two perpendicular dimensions once every seven days, and the tumor volumes were calculated according to the following formula: […]
where a is the width of the tumor (smaller diameter) and b is the length (larger diameter) (23). The mean tumor volume and standard error were calculated for each treatment group. Relative mean tumor volumes, (V/V0), where V is the mean tumor volume at a particular time and V0 is the mean tumor volume at day 0 (23), were determined and used to assess tumor growth inhibition (T/C value) using the following equation:
T/C(%)=Relative Mean Tumor Volume of treated/Relative Mean Volume of control×100.
The NCI standard for the minimal level for antitumor activity (T/C≦42%) was adopted (25). At the termination of the experiment the tumors were excised and fixed in formaldehyde. Tissue samples were then sent to Paragon Bioservices for histology and immunohistochemistry using antibodies against human P-glycoprotein (Pgp).
Two dosage regimens of M4N and paclitaxel, both with a constant molar ratio of 20:1 (M4N:paclitaxel), were employed as determined by in vitro testing to be synergistic as shown in Table 1. The 8 and 16 μmol m^2 doses of pactitaxel were submaximal based on values from other studies (22) and the M4N doses of 160 and 320 μmol/m^2 were arrived at by decreasing the maximum tolerated dose used in our previous study with MCF-7 breast cancer xenografts (5). An additional NDGA derivative was also tested. Maltose-M3N was developed as a water soluble alternative to M4N, however for consistency it was dissolved in the same reduced cremophor solvent system as M4N and paclitaxel for this study.

[6] = test system: MCF-7; details: MCF-7; read-out: IC50 from previous studies; cited from earlier work
[7] = dogs and rabbits, subcutaneous, intravaginal and IV formulations; cited from earlier work
[8] = test system: NCI/ADR-RES cells; test: cell proliferation, NCI/ADR-RES cells in culture; assay type: cell-based, human; details: 72 hours
[9] = test system: NCI/ADR-RES xenografts; test: NCI/ADR-RES xenografts in nude mice, M4N i.p. or oral; assay type: in vivo; details: 21 days systemic treatment, IP injection daily or oral feeding in food balls
Description: as §1

[10] = mouse, IP, IV and oral; cited from earlier work
[11] = test system: NCI/ADR-RES cells; test: SRB cytotoxicity assay with median-effect / combination index analysis; assay type: cell-based, human; details: for IC50: NCI/ADR-RES
Description: The multidrug resistant cell line, NCI/ADR-RES, was obtained from the DTP Human Tumor Cell Line Screen (Developmental Therapeutics Program, NCI). Both cell lines were maintained in Dulbecco's modified Eagle's medium supplemented with 10% fetal bovine serum and the antibiotics penicillin and streptomycin. […] Stocks of M4N and paclitaxel (Sigma-Aldrich, St. Louis, Mo.) were prepared in dimethyl sulfoxide (DMSO) and added to the cell culture medium so that the final concentration of DMSO was one percent. Aqueous stocks of Dox (Sigma-Aldrich) were prepared and filter sterilized before dilution into growth medium.
NCI/ADR-RES cells were seeded at a density of 2×10^4 cells per well in 24 well plates and 24 h later the growth medium was supplemented with M4N, Dox, paclitaxel or combinations of M4N with Dox or M4N with paclitaxel. MAN was used at concentrations between 1.5 and 48 μM. For the combination of MAN and Dox a constant molar ratio of 2.4:1 (M4N:Dox) was used and for M4N and paclitaxel the ratio was 20:1 (M4N:paclitaxel). Three days after drug addition cytoxicity was assessed with the SRB assay (14) with 540 and 690 nm (reference) absorbance measured with a Power Wave 200 microplate reader (Bio-Tek Instruments, Winooski, Vt.).
The combination index (CD isobologram method of Chou and Talalay (16, 17, 18, 19) which is based on the median effect principle, was used to calculate synergism or antagonism for the combined drug effects. Dose-effect curves for each drug, singly and in combination, in serially-diluted concentrations were plotted using the median-effect equation and plot (18, 20) and the CI equation and plot (19). CI values at different effect and dose levels and isobolograms were generated automatically using the computer software CompuSyn (20). With this method, additive, synergistic or antagonistic effects are indicated by CI values of 1, <1, and >1, respectively. Comparison of the ratio of doses required to reach a given effect level for each single drug and the drugs in combination was used to determine the dose-reduction index (DRI).

[12] = higher regimen: M4N or Mal-M3N 320, Px 16 μmoles/m^2, i.p. daily
[13] = lower regimen: M4N 160, Px 8 μmoles/m^2, i.p. daily
[14] = M4N/Dox combination 2.4:1, NCI/ADR-RES
[15] = M4N/paclitaxel combination 20:1, NCI/ADR-RES

Compound: COc1ccc(C[C@@H](C)[C@@H](C)Cc2ccc(OC)c(OC)c2)cc1OC [M4N, tetra-o-methyl nordihydroguaiaretic acid]
- level of MDR1 mRNA, of the untreated value, normalized to GAPDH [1]: 36.3%
- systemic side effects (gastrointestinal problems, anemia, hair loss) [2]: has not caused the systemic side effects
- M4N required to achieve a total cell arrest [3]: 20 µM
- solubility in aqueous solution [4]: limited solubility
- Deaths [5, 12]: 0/7
- Relative Mean Tumor Volume [5, 12]: 1.33
- T/C % [5, 12]: 50.8%
- Deaths [5, 13]: 0/7
- Mean Body Weight Change [5, 13]: +0.2 g/mouse
- Relative Mean Tumor Volume [5, 13]: 1.70
- T/C % [5, 13]: 64.9%
- IC50 [6]: ~7 µM
- amount of drug in the blood [7]: barely detectable
- M4N required to achieve a total cell arrest [8]: 40 µM
- tumor sizes of xenografts [9]: greatly reduced the tumor sizes
- level of drug in the blood [10]: extremely low and only presents transiently
- DRI value at ED75 [11, 14]: 5.94
- DRI value at ED90 [11, 14]: 24.26
- DRI value at ED95 [11, 14]: 63.16
- DRI value at ED75 [11, 15]: 3.98
- DRI value at ED90 [11, 15]: 5.76
- DRI value at ED95 [11, 15]: 7.40
- IC50 ([11]; three days, combinations at molar ratio 2.4:1 (M4N:Dox) or 20:1 (M4N:paclitaxel), given as M4N + second drug, read-out: Dm, median effect dose (concentration that inhibits cell growth by 50%)): 9.14 µM and 8.19 µM
- IC50 ([11]; single agent, read-out: average IC50): 8.67 µM
